# According to patent US6656690B2, “Mass spectrometric methods for biomolecular screening” (priority 1998, dated 2003):
# Test system: 18S A site model
# Test: ESI-FTICR mass spectrometric (MASS) binding assay, mass-tagged 18S A-site 27-mer RNA model
# Design: species or system eukaryotic
# Settings: aminoglycosides 500 nM each, mixture with untagged 16S and tagged 18S
# Procedure: The ESI-FTICR mass spectrum depicted in FIG. 26 was acquired from a […] mixture of untagged 16S and tagged 18S in the presence of an equimolar mixture of five aminoglycosides. It is to be understood that other biomolecules may be used in place of the aminoglycosides. The aminoglycosides have been selected from two classes of 2-deoxystreptamines: 4,5-disubstituted (paromomycin, and lividomycin), and 4,6-disubstituted (tobramycin, sisomicin, and bekanamycin), present at 500 nM each. Complexes corresponding to 1:1 binding of individual aminoglycosides were observed between 16S and all members of the aminoglycoside mixture, with the apparent affinities estimated from the abundances of the respective complexes differing substantially. Signal intensities from the complexes with paromomycin (m/z 1925.572) and lividomycin (m/z 1954.790) are consistent with MS-measured dissociation constants of 110 nM and 28 nM, respectively. The intensities of 16S complexes with tobramycin (m/z 1895.960), bekanamycin (m/z 1899.171), and sisomicin (m/z 1891.972) were reduced, consistent with solution dissociation constants of […]. Wang, et al., Biochemistry, 1997, 36, 768-779. […] The average mass measurement error obtained for the complexes in FIG. 26 is 2.1 ppm when m/z differences are measured between the most abundant (4 ^13C) isotope peak of 16S and each complex. […]
smiles,measurement,value
NC[C@@H]1O[C@H](O[C@H]2[C@@H](O)[C@H](O[C@@H]3[C@@H](O)[C@H](N)C[C@H](N)[C@H]3O[C@H]3O[C@H](CO)[C@@H](O)[C@H](O)[C@H]3N)O[C@@H]2CO)[C@H](N)[C@@H](O)[C@@H]1O [paromomycin],complexes observed with 18S (in words),complete absence of complexes
